In patent US20100222294A1, “Formulations of ATP and Analogs of ATP” (priority 2009, published 2010):
Read-outs that look alike come from different tables or passages of the source.

Assay type: physicochemical
Procedure: An aqueous solution containing the following components was made:
10 mg/ml of adenosine 5′-triphosphate disodium salt (anhydrous) (18.15 mM)
1 mg/ml of glycine (13.32 mM)
Sodium hydroxide (sufficient to adjust pH to 9.2-9.3)
Water sufficient to result in the above concentrations of adenosine 5′-triphosphate disodium salt (anhydrous), glycine, and 36 mg/ml of Na2HPO4.7H2O.
Below (in Table 2) are shown the relative amounts of ADP in the solution aliquots at the various time points. The data shown are concentrations of ADP as a percentage of the concentrations of ATP in the solution aliquots. The pH of the 72 month time point sample was 8.8.

Nc1ncnc2c1ncn2[C@@H]1O[C@H](COP(=O)([O-])OP(=O)([O-])OP(=O)(O)O)[C@@H](O)[C@H]1O.[Na+].[Na+] [ATP, adenosine 5′-triphosphate disodium salt (anhydrous)]
Relative amount of ADP ([ADP]/[ATP] × 100) (0 months storage (immediately after making), 10 mg/ml ATP disodium, 1 mg/ml glycine, 36 mg/ml Na2HPO4.7H2O, pH 9.2-9.3): 0.35% | Relative amount of ADP ([ADP]/[ATP] × 100) (1 month storage at about 4° C. to about 8° C., same solution): 0.42% | Relative amount of ADP ([ADP]/[ATP] × 100) (3 months storage at about 4° C. to about 8° C., same solution): 0.48% | Relative amount of ADP ([ADP]/[ATP] × 100) (6 months storage at about 4° C. to about 8° C., same solution): 0.57% | Relative amount of ADP ([ADP]/[ATP] × 100) (12 months storage at about 4° C. to about 8° C., same solution): 0.72% | Relative amount of ADP ([ADP]/[ATP] × 100) (24 months storage at about 4° C. to about 8° C., same solution): 1.15% | Relative amount of ADP ([ADP]/[ATP] × 100) (36 months storage at about 4° C. to about 8° C., same solution): 1.4% | pH of the solution after storage (72 month time point sample, initial pH 9.2-9.3): 8.8 | Relative amount of ADP ([ADP]/[ATP] × 100) (72 months (6 years) storage at about 4° C. to about 8° C., same solution): 2.9% | Stability of alkaline solution of ATP (duration) (alkaline solution): stable for at least six years | Presence of other ATP degradation (hydrolysis) products (AMP and adenosine) (all time points 0 to 72 months, about 4° C. to 8° C., HPLC): significant levels of neither were detectable at any of the time points
